The values that follow are results of earlier work, collected in patent US20100179202A1, “ORALLY DISINTEGRATING COMPOSITION OF ZOLMITRIPTAN” (AJANTA PHARMA LIMITED., priority 2009, published 2010).

For this data set the following is noted: background description of the drug substance.

For `CN(C)CCc1c[nH]c2ccc(C[C@H]3COC(=O)N3)cc12` [Zolmitriptan, (4S)-4-{[3-(2-dimethylaminoethyl)-1H-indol-5-yl]methyl}-1,3-oxazolidin-2-one], the solubility in water entry is “readily soluble in water”.
